# Data published in ChEMBL document CHEMBL1134946, “Synthesis and NK(1)/NK(2) binding activities of a series of diacyl-substituted 2-arylpiperazines” (Bioorg Med Chem Lett, 2002).
# What was measured:
# Substance-P receptor [1] = molecular target: Substance-P receptor (Homo sapiens, UniProt P25103); test: Binding affinity in membrane preparations containing recombinant human Tachykinin receptor 1 in CHO cells by using [3H]-Sar SP as the radioligand.; type: cell membranes
# Substance-K receptor [2] = molecular target: T1, Substance-K receptor (Homo sapiens, UniProt P21452); test: Binding affinity in membrane preparations containing recombinant human Tachykinin receptor 2 in CHO cells by using [3H]NKA as the radioligand.; type: cell membranes
# T1 sequence (P21452 whole entry): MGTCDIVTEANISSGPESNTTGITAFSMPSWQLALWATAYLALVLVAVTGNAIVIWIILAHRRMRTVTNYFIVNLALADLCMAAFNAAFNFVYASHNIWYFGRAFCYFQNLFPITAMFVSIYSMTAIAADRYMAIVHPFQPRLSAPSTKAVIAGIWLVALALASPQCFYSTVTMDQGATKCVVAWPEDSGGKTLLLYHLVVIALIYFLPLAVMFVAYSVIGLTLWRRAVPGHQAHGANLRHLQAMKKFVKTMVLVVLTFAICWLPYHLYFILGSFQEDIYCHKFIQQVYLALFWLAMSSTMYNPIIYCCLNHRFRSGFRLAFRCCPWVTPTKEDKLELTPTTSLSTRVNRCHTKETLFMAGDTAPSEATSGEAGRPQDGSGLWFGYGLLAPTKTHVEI
# Substance-K receptor [3] = molecular target: T2, Substance-K receptor (Mesocricetus auratus, UniProt P51144); test: Inhibition of NKA-induced airway contraction of isolated hamster trachea (ht) was used as a measure of NK2-receptor antagonist activity.; type: functional, tissue-based; conditions: read-out: pA2 (converted)
# T2 sequence (P51144 whole entry): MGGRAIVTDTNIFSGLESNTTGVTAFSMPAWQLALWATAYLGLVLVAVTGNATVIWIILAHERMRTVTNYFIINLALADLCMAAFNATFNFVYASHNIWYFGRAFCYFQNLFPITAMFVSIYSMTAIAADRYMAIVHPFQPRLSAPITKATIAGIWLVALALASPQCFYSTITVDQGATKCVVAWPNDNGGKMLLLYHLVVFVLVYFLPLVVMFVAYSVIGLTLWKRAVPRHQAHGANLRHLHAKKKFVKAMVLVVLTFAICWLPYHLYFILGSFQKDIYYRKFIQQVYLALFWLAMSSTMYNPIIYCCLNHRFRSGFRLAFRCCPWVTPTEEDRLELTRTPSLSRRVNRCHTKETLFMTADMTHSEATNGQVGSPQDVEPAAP
# Substance-P receptor [4] = molecular target: Substance-P receptor (Cavia porcellus, UniProt P30547); test: Inhibition of the SP-induced NK1-mediated enhancement of the EFS-induced sympathetic neurogenic contractions of gpvd, used as a measure of antagonist activity.; type: functional; conditions: read-out: pA2 (converted)
# Sequence of Substance-P receptor (Cavia porcellus, UniProt P30547) (P30547 whole entry): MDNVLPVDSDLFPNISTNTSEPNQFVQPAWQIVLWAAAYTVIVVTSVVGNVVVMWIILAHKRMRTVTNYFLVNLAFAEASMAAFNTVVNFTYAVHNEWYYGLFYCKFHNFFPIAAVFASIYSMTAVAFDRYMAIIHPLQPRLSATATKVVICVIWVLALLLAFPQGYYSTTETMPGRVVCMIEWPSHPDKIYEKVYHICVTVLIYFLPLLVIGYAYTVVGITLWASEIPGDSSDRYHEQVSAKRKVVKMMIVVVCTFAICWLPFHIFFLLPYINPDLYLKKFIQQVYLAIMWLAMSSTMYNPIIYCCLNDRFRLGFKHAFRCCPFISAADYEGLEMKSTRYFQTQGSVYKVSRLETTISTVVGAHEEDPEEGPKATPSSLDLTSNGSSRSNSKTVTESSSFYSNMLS
# Sequence of Substance-P receptor (Homo sapiens, UniProt P25103) (P25103 whole entry): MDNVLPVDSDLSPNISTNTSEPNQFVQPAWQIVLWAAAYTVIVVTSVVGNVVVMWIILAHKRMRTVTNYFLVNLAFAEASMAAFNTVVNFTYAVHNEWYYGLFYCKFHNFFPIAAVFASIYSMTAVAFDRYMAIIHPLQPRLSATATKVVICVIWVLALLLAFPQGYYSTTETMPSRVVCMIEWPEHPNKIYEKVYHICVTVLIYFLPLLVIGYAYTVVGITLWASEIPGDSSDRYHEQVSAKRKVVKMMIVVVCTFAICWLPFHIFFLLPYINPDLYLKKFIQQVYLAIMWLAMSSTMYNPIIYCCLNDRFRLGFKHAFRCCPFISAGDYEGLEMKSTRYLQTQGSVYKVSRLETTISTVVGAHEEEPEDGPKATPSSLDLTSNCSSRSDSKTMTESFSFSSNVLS
SMILES,Ki (Substance-P receptor [1]),Ki (Substance-K receptor [2]),Kb (Substance-K receptor [3]),Kb (Substance-P receptor [4])
COc1cc(CC(=O)N2CCN(C(=O)CNC3CCN(Cc4ccccc4)CC3)C(c3ccc(Cl)c(Cl)c3)C2)cc(OC)c1OC (centres undefined),> 1000 nM,> 1000 nM,–,–
Cc1cc(C)cc(C(=O)N2CCN(C(=O)CNC3CCN(C(=O)[C@@H](N)c4ccccc4)CC3)[C@H](c3ccc(Cl)c(Cl)c3)C2)c1,42 nM,1.1 nM,–,–
Cc1cc(C)cc(C(=O)N2CCN(C(=O)CNC3CCNCC3)[C@H](c3ccc(Cl)c(Cl)c3)C2)c1,215 nM,20 nM,–,–
CN1CCN(C(=O)CNC2CCN(Cc3ccccc3)CC2)C(c2ccccc2)C1 (centres undefined),135 nM,> 1000 nM,–,–
O=C(c1cc(Br)cc(Br)c1)N1CCN(C(=O)CNC2CCN(Cc3ccccc3)CC2)C(c2ccc(Cl)c(Cl)c2)C1 (centres undefined),3.2 nM,14 nM,–,–
Cc1cc(C)cc(C(=O)N2CCN(C(=O)CNC3CCN(C(=O)[C@@H](N)Cc4ccccc4)CC3)[C@H](c3ccc(Cl)c(Cl)c3)C2)c1,21 nM,3.2 nM,–,–
Cc1cc(C)cc(C(=O)N2CCN(C(=O)CNC3CCN(Cc4cc[nH]c4)CC3)[C@H](c3ccc(Cl)c(Cl)c3)C2)c1,35 nM,1.3 nM,–,–
Cc1cc(C)cc(C(=O)N2CCN(C(=O)CNC3CCN(C(=O)[C@H](N)c4ccccc4)CC3)[C@H](c3ccc(Cl)c(Cl)c3)C2)c1,143 nM,16 nM,–,–
O=C(Cc1cc(C(F)(F)F)cc(C(F)(F)F)c1)N1CCN(C(=O)CNC2CCN(Cc3ccccc3)CC2)C(c2ccccc2)C1 (centres undefined),136 nM,> 1000 nM,–,–
O=C(c1cc(F)cc(F)c1)N1CCN(C(=O)CNC2CCN(Cc3ccccc3)CC2)C(c2ccc(Cl)c(Cl)c2)C1 (centres undefined),23 nM,22 nM,–,–
CC(=O)Nc1nc(CN2CCC(NCC(=O)N3CCN(C(=O)c4cc(C)cc(C)c4)C[C@H]3c3ccc(Cl)c(Cl)c3)CC2)cs1,52 nM,0.9 nM,–,–
Cc1cc(C)cc(C(=O)N2CCN(C(=O)CNC3CCN(Cc4ncc[nH]4)CC3)[C@H](c3ccc(Cl)c(Cl)c3)C2)c1,92 nM,3 nM,–,–
Cc1cc(C)cc(C(=O)N2CCN(C(=O)CNC3CCN(C(=O)[C@H](N)Cc4c[nH]c5ccccc45)CC3)[C@H](c3ccc(Cl)c(Cl)c3)C2)c1,70 nM,28 nM,–,–
Cc1cc(C)cc(C(=O)N2CCN(C(=O)CNC3CCN(C(=O)[C@H](N)Cc4ccccc4)CC3)[C@H](c3ccc(Cl)c(Cl)c3)C2)c1,11 nM,1.1 nM,–,–
CC(=O)Nc1ccc(CN2CCC(NCC(=O)N3CCN(C(=O)c4cc(C)cc(C)c4)C[C@H]3c3ccc(Cl)c(Cl)c3)CC2)cc1,15 nM,1.3 nM,–,–
O=C(c1cc(Cl)cc(Cl)c1)N1CCN(C(=O)CNC2CCN(Cc3ccccc3)CC2)C(c2ccc(Cl)c(Cl)c2)C1 (centres undefined),7.7 nM,14 nM,–,–
Cc1cc(C)cc(C(=O)N2CCN(C(=O)CNC3CCN(Cc4ccccc4)CC3)C(c3ccc(Cl)c(Cl)c3)C2)c1 (centres undefined),–,–,316 nM,316 nM

SMILES,Ki (Substance-P receptor [1]),Ki (Substance-K receptor [2]),Kb (Substance-K receptor [3]),Kb (Substance-P receptor [4])
O=C(CNC1CCN(Cc2ccccc2)CC1)N1CCN(Cc2cc(C(F)(F)F)cc(C(F)(F)F)c2)CC1c1ccc(Cl)c(Cl)c1 (centres undefined),30 nM,175 nM,–,–
O=C(CN1CCC(O)(c2ccccc2)CC1)N1CCN(Cc2cc(C(F)(F)F)cc(C(F)(F)F)c2)CC1c1ccccc1 (centres undefined),13 nM,> 1000 nM,–,–
O=C(CN1CCC(Cc2ccccc2)CC1)N1CCN(Cc2cc(C(F)(F)F)cc(C(F)(F)F)c2)CC1c1ccc(Cl)c(Cl)c1 (centres undefined),110 nM,> 1000 nM,–,–
CC(=O)NC1(c2ccccc2)CCN(CC(=O)N2CCN(Cc3cc(C(F)(F)F)cc(C(F)(F)F)c3)CC2c2ccccc2)CC1 (centres undefined),48 nM,> 1000 nM,–,–
COc1cc(C(=O)N2CCN(C(=O)CNC3CCN(Cc4ccccc4)CC3)C(c3ccc(Cl)c(Cl)c3)C2)cc(OC)c1OC (centres undefined),112 nM,124 nM,–,–
COc1cc(OC)cc(C(=O)N2CCN(C(=O)CNC3CCN(Cc4ccccc4)CC3)C(c3ccc(Cl)c(Cl)c3)C2)c1 (centres undefined),7.1 nM,27 nM,–,–
Cc1cc(C)cc(C(=O)N2CCN(C(=O)CNC3CCN(C(=O)[C@H](N)Cc4ccc(O)cc4)CC3)[C@H](c3ccc(Cl)c(Cl)c3)C2)c1,32 nM,7 nM,–,–
Cc1cc(C)cc(C(=O)N2CCN(C(=O)CNC3CCN(Cc4ccccc4)CC3)[C@@H](c3ccc(Cl)c(Cl)c3)C2)c1,–,–,–,6.31 nM
O=C(CN1CCN(Cc2ccccc2)CC1)N1CCN(Cc2cc(C(F)(F)F)cc(C(F)(F)F)c2)CC1c1ccc(Cl)c(Cl)c1 (centres undefined),28 nM,> 1000 nM,–,–
O=C(CN1CCN(Cc2ccccc2)CC1)N1CCN(Cc2cc(C(F)(F)F)cc(C(F)(F)F)c2)CC1c1ccccc1 (centres undefined),48 nM,> 1000 nM,–,–
O=C(c1cc(O)cc(O)c1)N1CCN(C(=O)CNC2CCN(Cc3ccccc3)CC2)C(c2ccc(Cl)c(Cl)c2)C1 (centres undefined),> 1000 nM,> 1000 nM,–,–
O=C(CN1CCC(Cc2ccccc2)CC1)N1CCN(Cc2cc(C(F)(F)F)cc(C(F)(F)F)c2)CC1c1ccccc1 (centres undefined),37 nM,> 1000 nM,–,–
O=C(c1cc(C(F)(F)F)cc(C(F)(F)F)c1)N1CCN(C(=O)CNC2CCN(Cc3ccccc3)CC2)C(c2ccc(Cl)c(Cl)c2)C1 (centres undefined),–,–,–,79.4 nM
O=C(CNC1CCN(Cc2ccccc2)CC1)N1CCN(Cc2cc(C(F)(F)F)cc(C(F)(F)F)c2)CC1c1ccccc1 (centres undefined),17 nM,300 nM,–,–
O=C(CN1CCC(O)(c2ccccc2)CC1)N1CCN(Cc2cc(C(F)(F)F)cc(C(F)(F)F)c2)CC1c1ccc(Cl)c(Cl)c1 (centres undefined),32 nM,> 1000 nM,–,–
CC(=O)NC1(c2ccccc2)CCN(CC(=O)N2CCN(Cc3cc(C(F)(F)F)cc(C(F)(F)F)c3)CC2c2ccc(Cl)c(Cl)c2)CC1 (centres undefined),148 nM,> 1000 nM,–,–
